Patent US7652022B2, “Diaryl urea derivatives useful for the treatment of protein kinase dependent diseases” (Novartis AG, priority 2002, dated 2010)

Assays:
[1] = molecular target: T1, c-Abl kinase (His-tagged kinase domain of c-Abl) (Homo sapiens, UniProt P00519); experiment: c-Abl protein-tyrosine kinase in vitro enzyme filter binding assay; assay type: biochemical; conditions: % inhibition at 10 μM
T1 construct: The His-tagged kinase domain of c-Abl is cloned and expressed in the baculovirus/Sf9 system; His tag; made in house; host or cells: Sf9 insect cells (baculovirus)
T1 sequence (P00519 242-493 limits assumed): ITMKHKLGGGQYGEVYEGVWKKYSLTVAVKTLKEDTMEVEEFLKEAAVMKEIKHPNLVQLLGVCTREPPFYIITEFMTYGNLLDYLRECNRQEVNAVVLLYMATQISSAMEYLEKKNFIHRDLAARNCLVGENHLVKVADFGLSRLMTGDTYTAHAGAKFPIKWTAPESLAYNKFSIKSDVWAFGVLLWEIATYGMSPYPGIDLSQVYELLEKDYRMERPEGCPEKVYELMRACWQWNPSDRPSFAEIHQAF
Description: An in vitro enzyme assay is performed in 96-well plates as a filter binding assay as described by Geissler et al. in Cancer Res. 1992; 52:4492-4498, with the following modifications. The His-tagged kinase domain of c-Abl is cloned and expressed in the baculovirus/Sf9 system as described by Bhat et al. in J. Biol. Chem. 1997; 272:16170-16175. A protein of 37 kD (c-Abl kinase) is purified by a two-step procedure over a Cobalt metal chelate column followed by an anion exchange column with a yield of 1-2 mg/L of Sf9 cells (Bhat et al., reference cited). The purity of the c-Abl kinase is >90% as judged by SDS-PAGE after Coomassie blue staining. The assay contains (total volume of 30 μL): c-Abl kinase (50 ng), 20 mM Tris·HCl, pH 7.5, 10 mM MgCl2, 10 μM Na3VO4, 1 mM DTT and 0.06 μCi/assay [γ^33 P]-ATP (5 μM ATP) using 30 μg/mL poly-Ala,Glu,Lys,Tyr-6:2:5:1 (Poly-AEKY, Sigma P1152) in the presence of 1% DMSO. Reactions are terminated by adding 10 μL of 250 mM EDTA and 30 μL of the reaction mixture is transferred onto Immobilon-PVDF membrane (Millipore, Bedford, Mass., USA) previously soaked for 5 min with methanol, rinsed with water, then soaked for 5 min with 0.5% H3PO4 and mounted on vacuum manifold with disconnected vacuum source. After spotting all samples, vacuum is connected and each well rinsed with 200 μL 0.5% H3PO4. Membranes are removed and washed on a shaker with 0.5% H3PO4 (4 times) and once with ethanol. Membranes are counted after drying at ambient temperature, mounting in Packard TopCount 96-well frame, and addition of 10 μL/well of Microscint™ (Packard).
Enzymatic (c-Abl, KDR, Flt3) data are given on Table 17 (% inhibition at 10 μM). (Measurements are made as described above in the general description).

[2] = molecular target: T2, human VEGF-R2 receptor (KDR) (Homo sapiens, UniProt P35968); experiment: Inhibition of VEGF-induced VEGF-R2 (KDR) autophosphorylation in transfected CHO cells, sandwich ELISA; assay type: cell-based; conditions: % inhibition at 10 μM
T2 construct: expressed in transfected cells
Description: The inhibition of VEGF-induced receptor autophosphorylation can be confirmed with a further in vitro experiments in cells such as transfected CHO cells, which permanently express human VEGF-R2 receptor (KDR), are seeded in complete culture medium (with 10% fetal calf serum=FCS) in 6-well cell-culture plates and incubated at 37° C. under 5% CO2 until they show about 80% confluency. The compounds to be tested are then diluted in culture medium (without FCS, with 0.1% bovine serum albumin) and added to the cells. (Controls comprise medium without test compounds). After two hours of incubation at 37° C., recombinant VEGF is added; the final VEGF concentration is 20 ng/ml. After a further five minutes incubation at 37° C., the cells are washed twice with ice-cold PBS (phosphate-buffered saline) and immediately lysed in 100 μl lysis buffer per well. The lysates are then centrifuged to remove the cell nuclei, and the protein concentrations of the supernatants are determined using a commercial protein assay (BIORAD). The lysates can then either be immediately used or, if necessary, stored at −20° C.
The plates are then washed and the remaining free protein-binding sites are saturated with 3% TopBlock® (Juro, Cat. # TB232010) in phosphate buffered saline with Tween 20® (polyoxyethylen(20)sorbitane monolaurate, ICI/Uniquema) (PBST). The cell lysates (20 μg protein per well) are then incubated in these plates overnight at 4° C. together with an antiphosphotyrosine antibody coupled with alkaline phosphatase (PY20:AP from Zymed). […] The luminescence is measured in a Packard Top Count Microplate Scintillation Counter. The difference between the signal of the positive control (stimulated with VEGF) and that of the negative control (not stimulated with VEGF) corresponds to VEGF-induced VEGF-R2 phosphorylation (=100%). The activity of the tested substances is calculated as percent inhibition of VEGF-induced VEGF-R2 phosphorylation, wherein the concentration of substance that induces half the maximum inhibition is defined as the IC50 (inhibitory dose for 50% inhibition). […]

T2 sequence (P35968 20-1356): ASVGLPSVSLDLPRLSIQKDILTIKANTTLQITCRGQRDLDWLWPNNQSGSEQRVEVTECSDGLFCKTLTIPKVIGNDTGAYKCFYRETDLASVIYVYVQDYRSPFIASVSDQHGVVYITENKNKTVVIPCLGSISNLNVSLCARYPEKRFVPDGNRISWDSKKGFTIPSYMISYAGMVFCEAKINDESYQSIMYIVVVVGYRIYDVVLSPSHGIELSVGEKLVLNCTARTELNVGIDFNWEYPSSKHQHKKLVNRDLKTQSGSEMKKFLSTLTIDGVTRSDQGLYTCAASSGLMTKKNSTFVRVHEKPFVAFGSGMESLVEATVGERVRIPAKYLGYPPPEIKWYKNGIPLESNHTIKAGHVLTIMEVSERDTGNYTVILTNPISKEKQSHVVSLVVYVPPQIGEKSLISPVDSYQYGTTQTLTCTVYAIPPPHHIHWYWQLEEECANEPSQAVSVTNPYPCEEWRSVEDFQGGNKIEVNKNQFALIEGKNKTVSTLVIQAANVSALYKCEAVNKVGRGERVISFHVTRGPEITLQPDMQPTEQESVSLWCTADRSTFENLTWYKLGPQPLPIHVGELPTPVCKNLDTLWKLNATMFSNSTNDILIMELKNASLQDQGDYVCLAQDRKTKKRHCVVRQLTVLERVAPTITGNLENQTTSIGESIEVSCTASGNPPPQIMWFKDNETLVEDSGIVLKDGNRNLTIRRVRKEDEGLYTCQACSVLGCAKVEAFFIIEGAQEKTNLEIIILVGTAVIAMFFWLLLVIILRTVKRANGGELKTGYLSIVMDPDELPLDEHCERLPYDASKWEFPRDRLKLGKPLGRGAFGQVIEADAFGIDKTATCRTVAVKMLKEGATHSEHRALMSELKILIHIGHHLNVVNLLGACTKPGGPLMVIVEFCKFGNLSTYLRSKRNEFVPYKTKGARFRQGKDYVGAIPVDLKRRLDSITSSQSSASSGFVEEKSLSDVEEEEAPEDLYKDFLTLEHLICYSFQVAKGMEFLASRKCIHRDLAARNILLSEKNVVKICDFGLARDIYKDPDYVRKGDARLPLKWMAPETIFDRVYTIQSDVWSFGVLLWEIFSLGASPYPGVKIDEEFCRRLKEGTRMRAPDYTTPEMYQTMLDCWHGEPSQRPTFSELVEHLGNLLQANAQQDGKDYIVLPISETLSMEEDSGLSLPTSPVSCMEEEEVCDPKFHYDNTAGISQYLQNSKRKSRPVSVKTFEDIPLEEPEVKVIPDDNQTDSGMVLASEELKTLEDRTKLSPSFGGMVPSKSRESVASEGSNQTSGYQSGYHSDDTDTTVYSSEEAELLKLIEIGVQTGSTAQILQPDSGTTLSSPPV

c-Abl (% at 10 μM) [1] | KDR trans (% at 10 μM) [2] | Compound
59% | 99% | Cc1ccc(NC(=O)Nc2ccc(Oc3ccncc3)cc2)cc1 [Example 4]
46% | 99% | CCc1ccc(NC(=O)N(C)c2ccc(Oc3ccncc3)cc2)cc1 [Example 5]
75% | 100% | CN(C(=O)Nc1cccc(C(F)(F)F)c1)c1ccc(Oc2ccncc2)cc1 [Example 6]
47% | 97% | CCCc1ccc(NC(=O)N(C)c2ccc(Oc3ccncc3)cc2)cc1 [Example 7]
48% | 78% | Cc1ccc(NC(=O)N(C)c2ccc(Oc3ccncc3)cc2)cc1 [Example 8]
100% | 92% | O=C(Nc1ccc(Oc2ccncc2)cc1)Nc1ccc(Br)c(C(F)(F)F)c1 [Example 9]
98% | 100% | O=C(Nc1ccc(Oc2ccncc2)cc1)Nc1ccc(OCC(F)(F)F)c(C(F)(F)F)c1 [Example 10]
95% | 100% | COc1cc(NC(=O)Nc2ccc(Oc3ccncc3)cc2)cc(C(F)(F)F)c1 [Example 11]
33% | 97% | CCCc1ccc(NC(=O)Nc2ccc(Cc3ccncc3)cc2)cc1 [Example 12]
36% | 98% | CCc1ccc(NC(=O)Nc2ccc(Cc3ccncc3)cc2)cc1 [Example 13]
26% | 97% | Cc1ccc(NC(=O)Nc2ccc(Cc3ccncc3)cc2)cc1 [Example 14]
71% | 99% | O=C(Nc1ccc(Cc2ccncc2)cc1)Nc1cccc(C(F)(F)F)c1 [Example 15]
66% | 99% | CCc1ccc(NC(=O)Cc2ccc(Oc3ccncc3)cc2)cc1 [Example 16, N-(4-pyridin-4-yl-oxy-phenyl)acetyl-(4-ethyl-phenyl)-amide]
18% | 96% | Cc1ccc(NC(=O)Cc2ccc(Oc3ccncc3)cc2)cc1 [Example 17]
61% | 99% | CCCc1ccc(NC(=O)Cc2ccc(Oc3ccncc3)cc2)cc1 [Example 18]
92% | 86% | O=C(Nc1cccc(C(F)(F)F)c1)N1CCc2cc(Oc3ccncc3)ccc21 [Example 19, 5(4-pyridyloxy)-N-(3-trifluoromethyl-phenyl)amino-carbonyl-2,3-dihydroindole]
84% | 93% | O=C(Nc1cccc(C(F)(F)F)c1)N1CCCc2cc(Oc3ccncc3)ccc21 [Example 20]
70% | 100% | O=C(Nc1ccc(Oc2cc(Cl)ncn2)cc1)Nc1cccc(C(F)(F)F)c1 [Example 21, N-(4-(6-Chloropyrimidin-4-yl)-oxyphenyl)-N′-(3-trifluoromethylphenyl)-urea]
100% | 98% | Cc1cc(Oc2ccc(NC(=O)Nc3cccc(C(F)(F)F)c3)cc2)ccn1 [Example 30]
98% | 96% | O=C(Nc1ccc(Oc2cc(Nc3ccc(O)cc3)ncn2)cc1)Nc1ccc(OCC(F)(F)F)c(C(F)(F)F)c1 [Example 32]
